Holding throughout (format): cell-based
The test system of one test is IL-6 mRNA. Description: LPS-stimulated IL-6 mRNA expression in mouse macrophages (real time PCR). As to conditions: then 10 μg/mL LPS 4 h, vs LPS-treated group. Here is the method:
(§1) Mouse macrophages were pre-cultured with RPMI1640 medium for 1 day. After incubation, mouse macrophages were treated with 10 μM mangiferin 8a, 10 μM norathyriol, 1 μM M9, and 1 μM M14 for 1 day. Then, 10 μg/mL LPS was added to mouse macrophages and cultured for 4 h. After incubation, cells were collected, RNA was extracted, and TNFα mRNA expression was measured by real time PCR.
The inhibitory effect of compounds on IL-6 mRNA expression involved in cytokine storm was examined using mouse macrophages.
The experimental procedure is the same as in Example 3. […] For controls, only 0.5% DMSO (diluted in PBS) used to dissolve the compounds was added. 10 μg/mL LPS administered is called the LPS-treated group, LPS and mangiferin 8a administered in combination is called the mangiferin 8a-treated group, LPS and norathyriol administered in combination is called the norathyriol group, LPS and M9 administered in combination is called the M9-treated group, LPS and M14 administered in combination is called the M14-treated group, respectively.

A further test has as its system TNFα. The test can be described thus: LPS-stimulated TNFα production in mouse macrophages (ELISA). As to conditions: culture supernatant, then 10 μg/mL LPS 2 days, control 24.11, LPS alone 421.13 pg/mL. Here is the method: The inhibitory effect of compounds on TNFα production involved in cytokine storm was examined using mouse macrophages.
Mouse macrophages were pre-cultured with RPMI1640 medium for 1 day. After incubation, mouse macrophages were treated with 10 μM mangiferin 8a, 10 μM norathyriol, 1 μM M9, and 1 μM M14 for 1 day. Then, 10 μg/mL LPS was added to mouse macrophages and cultured for 2 days. After incubation, the culture supernatant was collected and TNFα production was determined by enzyme-linked immunosorbent assay (ELISA). This measurement was performed using a mouse TNFα ELISA kit (R&D).
On the technique in general: ELISA stands for enzyme-linked immunosorbent assay.

The subject of another test is TNFα mRNA. The test can be described thus: LPS-stimulated TNFα mRNA expression in mouse macrophages (real time PCR). As to conditions: then 10 μg/mL LPS 4 h, vs LPS-treated group. Here is the method: The inhibitory effect of compounds on TNFα mRNA expression involved in cytokine storm was examined using mouse macrophages.
as §1
For controls, only 0.5% DMSO (diluted in PBS) used to dissolve the compounds was added. 10 μg/mL LPS administered is called the LPS-treated group, LPS and mangiferin 8a administered in combination is called the mangiferin 8a-treated group, LPS and norathyriol administered in combination is called the norathyriol group, LPS and M9 administered in combination is called the M9-treated group, LPS and M14 administered in combination is called the M14-treated group, respectively.
Background: Quantitative PCR measures a nucleic acid by following its amplification.

As for `O=c1c2cc(O)c(O)cc2oc2cc(O)cc(O)c12` [norathyriol, 1,3,6,7-tetrahydroxyxanthone], the “LPS-induced IL-6 mRNA expression (ratio to GAPDH mRNA)” value in the test with IL-6 mRNA (10 μM compound 1 day) is listed as “decrease in LPS-induced IL-6 mRNA expression”. For the same molecule, in the test on TNFα (10 μM compound 1 day), the TNFα production is given as 68.13 pg/mL. Further, the “LPS-induced TNFα mRNA expression (ratio to GAPDH mRNA)” value in the test with TNFα mRNA (10 μM compound 1 day) is “decrease in LPS-induced TNFα mRNA expression”.
Turning to `CCCC(=O)OC[C@H]1O[C@@H](c2c(O)cc3oc4cc(O)c(O)cc4c(=O)c3c2O)[C@H](OC(=O)CCC)[C@@H](OC(=O)CCC)[C@@H]1OC(=O)CCC` [M14, 2′,3′,4′,6′-tetra-O-butyrylmangiferin], in the test with IL-6 mRNA (1 μM compound 1 day), the “LPS-induced IL-6 mRNA expression (ratio to GAPDH mRNA)” value is recorded as “decrease in LPS-induced IL-6 mRNA expression”. For the same molecule, the TNFα production in the test on TNFα (1 μM compound 1 day) amounted to 54.13 pg/mL. The “LPS-induced TNFα mRNA expression (ratio to GAPDH mRNA)” value in the test with TNFα mRNA (1 μM compound 1 day) is on record as “decrease in LPS-induced TNFα mRNA expression”.
With `CCC(=O)OC[C@H]1O[C@@H](c2c(O)cc3oc4cc(O)c(O)cc4c(=O)c3c2O)[C@H](OC(=O)CC)[C@@H](OC(=O)CC)[C@@H]1OC(=O)CC` [M9, 2′,3′,4′,6′-tetra-O-propionylmangiferin], in the test on IL-6 mRNA (1 μM compound 1 day), the “LPS-induced IL-6 mRNA expression (ratio to GAPDH mRNA)” value is on record as “decrease in LPS-induced IL-6 mRNA expression”. This molecule yielded a TNFα production with TNFα (1 μM compound 1 day) of 58.13 pg/mL. Moreover, the “LPS-induced TNFα mRNA expression (ratio to GAPDH mRNA)” value with TNFα mRNA (1 μM compound 1 day) was “decrease in LPS-induced TNFα mRNA expression”.

(Values after patent publication US20240115589A1, “PHARMACEUTICAL COMPOSITION FOR PREVENTING CYTOKINE STORM” (KINKI UNIVERSITY, priority 2021, published 2024).)
